Measured values from ChEMBL document CHEMBL1201862, “PubChem BioAssay data set” (2004).
Several values for one entry are separate records, joined by “and”; a condition that tells them apart may be missing. Equal entries are not always repeated. Activity calls are given as the source filed them.

Tests used:
Coagulation factor XII = molecular target: T1, Coagulation factor XII (Homo sapiens, UniProt P00748); test: Factor XIIa Dose Response Confirmation from Single Well HTS. [Related pubchem assays (depositor defined):AID701]; format: functional
T1 sequence (P00748 whole entry): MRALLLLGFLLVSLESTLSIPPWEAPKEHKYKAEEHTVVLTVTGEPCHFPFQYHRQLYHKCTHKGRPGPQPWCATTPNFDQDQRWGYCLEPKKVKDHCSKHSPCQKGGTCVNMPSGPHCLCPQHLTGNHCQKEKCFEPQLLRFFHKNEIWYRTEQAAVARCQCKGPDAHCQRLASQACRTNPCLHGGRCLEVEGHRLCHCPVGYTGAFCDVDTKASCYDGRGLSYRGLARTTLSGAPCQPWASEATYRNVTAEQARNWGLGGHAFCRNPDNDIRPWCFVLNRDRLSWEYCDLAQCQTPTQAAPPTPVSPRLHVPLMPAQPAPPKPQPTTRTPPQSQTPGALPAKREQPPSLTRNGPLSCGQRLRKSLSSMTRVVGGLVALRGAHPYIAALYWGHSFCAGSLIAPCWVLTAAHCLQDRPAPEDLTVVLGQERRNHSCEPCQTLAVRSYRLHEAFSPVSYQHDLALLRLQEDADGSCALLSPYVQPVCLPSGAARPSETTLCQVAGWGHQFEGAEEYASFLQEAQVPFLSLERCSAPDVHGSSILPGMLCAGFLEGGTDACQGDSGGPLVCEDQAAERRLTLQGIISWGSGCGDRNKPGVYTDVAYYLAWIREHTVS

Prothrombin = Prothrombin (Homo sapiens, UniProt P00734); test: Thrombin 1536 HTS Dose Response Confirmation. [Related pubchem assays: 1046 (Thrombin 1536 HTS; hits were confirmed in this assay)]; format: functional
[1] = Luminescence Cell-Based Dose Retest to Confirm Inhibitors of Cancer Stem Cells. [Related pubchem assays (depositor defined):AID2717, AID2721]; format: functional; details: Homo sapiens
T-cell = test: loss of vesicle association with mouse CD8+ T cells – mouse 2C CD8+ T cells, flow cytometry, dose response (AID 485284); format: functional
[2] = molecular target: Glyceraldehyde-3-phosphate dehydrogenase (Homo sapiens, UniProt P04406)
[3] = molecular target: T2, Alkaline phosphatase, tissue-nonspecific isozyme (Homo sapiens, UniProt P05186); test: potency against alkaline phosphatase TNAP – biochemical, luminescent, dose response, SAR follow-up (AID 1056)
T2 sequence (P05186 whole entry): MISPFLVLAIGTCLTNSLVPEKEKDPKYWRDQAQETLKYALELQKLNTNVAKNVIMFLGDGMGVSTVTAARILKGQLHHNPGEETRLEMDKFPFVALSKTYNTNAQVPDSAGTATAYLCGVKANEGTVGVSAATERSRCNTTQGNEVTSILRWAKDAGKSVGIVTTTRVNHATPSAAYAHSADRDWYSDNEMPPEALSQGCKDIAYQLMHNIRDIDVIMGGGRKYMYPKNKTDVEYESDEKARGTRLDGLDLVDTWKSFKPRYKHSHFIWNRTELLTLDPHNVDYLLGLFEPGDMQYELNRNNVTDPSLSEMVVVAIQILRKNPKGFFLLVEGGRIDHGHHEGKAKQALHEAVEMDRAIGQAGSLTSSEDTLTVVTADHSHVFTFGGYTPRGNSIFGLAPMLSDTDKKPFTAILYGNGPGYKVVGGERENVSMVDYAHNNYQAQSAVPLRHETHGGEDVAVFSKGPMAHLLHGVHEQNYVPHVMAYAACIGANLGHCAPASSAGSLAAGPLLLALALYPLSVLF

[4] = molecular target: T3, Replicative DNA helicase DnaB (Mycobacterium tuberculosis, UniProt P9WMR3); test: DnaB intein splicing inhibitors, dose response, biochemical, cell-free fluorescence (AID 449749); format: functional
T3 sequence (P9WMR3 whole entry): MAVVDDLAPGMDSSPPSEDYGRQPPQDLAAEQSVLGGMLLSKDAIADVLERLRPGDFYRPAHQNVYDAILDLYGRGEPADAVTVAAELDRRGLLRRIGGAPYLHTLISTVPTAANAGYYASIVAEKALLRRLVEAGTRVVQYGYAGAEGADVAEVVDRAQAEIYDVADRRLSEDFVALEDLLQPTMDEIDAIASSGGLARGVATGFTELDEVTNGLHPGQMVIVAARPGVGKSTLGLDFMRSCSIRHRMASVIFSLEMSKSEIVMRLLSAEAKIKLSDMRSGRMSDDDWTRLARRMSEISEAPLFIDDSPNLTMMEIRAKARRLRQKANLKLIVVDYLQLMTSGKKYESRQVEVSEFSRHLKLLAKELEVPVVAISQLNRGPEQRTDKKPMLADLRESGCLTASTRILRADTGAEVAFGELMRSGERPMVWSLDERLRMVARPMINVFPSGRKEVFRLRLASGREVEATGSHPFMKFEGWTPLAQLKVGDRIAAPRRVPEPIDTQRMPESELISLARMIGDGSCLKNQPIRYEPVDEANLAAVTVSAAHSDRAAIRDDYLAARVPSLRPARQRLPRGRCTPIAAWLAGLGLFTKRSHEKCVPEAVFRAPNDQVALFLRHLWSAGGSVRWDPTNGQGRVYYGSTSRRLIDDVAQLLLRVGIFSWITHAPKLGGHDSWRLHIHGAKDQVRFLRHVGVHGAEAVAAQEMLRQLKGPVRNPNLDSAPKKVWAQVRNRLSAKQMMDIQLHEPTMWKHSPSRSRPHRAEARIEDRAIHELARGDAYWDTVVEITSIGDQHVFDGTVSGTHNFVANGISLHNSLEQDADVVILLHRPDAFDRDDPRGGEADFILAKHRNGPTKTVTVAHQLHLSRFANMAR

Protein RecA = molecular target: T4, Protein RecA (Mycobacterium tuberculosis, UniProt P9WHJ3); test: Fluorescence Cell-Free Homogeneous Dose Retest to Identify Inhibitors of RecA-Intein Splicing Activity. [Related pubchem assays (depositor defined):AID2097, AID2223, AID489010, AID492950]; format: functional
T4 sequence (P9WHJ3 whole entry): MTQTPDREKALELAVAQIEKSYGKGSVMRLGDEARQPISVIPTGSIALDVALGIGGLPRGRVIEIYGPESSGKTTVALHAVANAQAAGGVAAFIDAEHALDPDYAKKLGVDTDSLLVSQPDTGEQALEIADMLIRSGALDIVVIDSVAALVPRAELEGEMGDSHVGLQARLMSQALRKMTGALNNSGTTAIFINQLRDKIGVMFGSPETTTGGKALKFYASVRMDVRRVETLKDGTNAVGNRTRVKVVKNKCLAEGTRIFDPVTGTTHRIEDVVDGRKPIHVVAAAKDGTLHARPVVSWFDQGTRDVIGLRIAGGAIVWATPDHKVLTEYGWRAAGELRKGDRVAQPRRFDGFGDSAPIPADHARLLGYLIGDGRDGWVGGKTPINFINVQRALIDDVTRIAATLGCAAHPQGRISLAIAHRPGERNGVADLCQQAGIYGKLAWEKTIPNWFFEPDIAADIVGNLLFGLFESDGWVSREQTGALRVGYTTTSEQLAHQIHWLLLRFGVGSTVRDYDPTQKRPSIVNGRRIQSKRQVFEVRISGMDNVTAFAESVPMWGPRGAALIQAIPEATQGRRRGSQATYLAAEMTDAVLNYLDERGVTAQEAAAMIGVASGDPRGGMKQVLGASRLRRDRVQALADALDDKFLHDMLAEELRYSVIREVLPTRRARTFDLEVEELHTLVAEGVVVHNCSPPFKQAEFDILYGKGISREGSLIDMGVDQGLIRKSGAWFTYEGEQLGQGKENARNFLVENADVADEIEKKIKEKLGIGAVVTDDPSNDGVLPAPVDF

[5] = HEK-293T viability loss after treatment – luminescence, T-cell screen hits, cytotoxicity control for TCR NF-kB inhibitor project, dose response (AID 489026); format: functional, cell-based;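 note: cells exposed to compound about 14 hours before the viability readout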
[6] = Intein inhibitors as potential Tuberculosis drugs, a cytotoxicity screen. [Related pubchem assays (depositor defined):AID2221, AID2223, AID434968, AID435010, AID449749, AID449750, AID489010]; format: functional
[7] = molecular target: T5, Type-1 angiotensin II receptor (Homo sapiens, UniProt P30556); test: agonist activity at AGTR1 – cell-based, uHTS hits, selectivity assay for APJ receptor agonist project, dose response (AID 488865); format: functional;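 note: beta-arrestin recruitment to AT1 measured by enzyme fragment complementation luminescence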
T5 sequence (P30556 whole entry): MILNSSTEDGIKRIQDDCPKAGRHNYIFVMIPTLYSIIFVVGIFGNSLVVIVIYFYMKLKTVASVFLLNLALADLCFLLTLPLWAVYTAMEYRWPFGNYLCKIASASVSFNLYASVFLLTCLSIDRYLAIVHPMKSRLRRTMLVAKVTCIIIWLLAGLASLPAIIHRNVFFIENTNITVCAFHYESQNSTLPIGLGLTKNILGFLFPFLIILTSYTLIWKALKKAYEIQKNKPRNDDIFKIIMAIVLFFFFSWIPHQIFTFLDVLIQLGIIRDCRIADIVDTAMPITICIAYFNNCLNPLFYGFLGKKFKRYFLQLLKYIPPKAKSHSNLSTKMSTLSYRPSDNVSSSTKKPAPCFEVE

X-box-binding protein 1 = X-box-binding protein 1 (Homo sapiens, UniProt P17861); format: functional, Cricetulus griseus;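 note: confirmatory dose-response counter-screen serving a CHOP assay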
HEK293 = test: EBV LMP1 TES2 canonical NF-kB signalling blockers – cell-based, HEK293, luciferase, cherry-pick, dose response (AID 588343); format: functional; details: Homo sapiens
[8] = Vero E6 cell cytotoxicity, dose response, cytotoxicity control for non-replicating M. tuberculosis project, secondary assay (AID 492998); format: functional, VeroE6; details: Vero C1008
[9] = molecular target: T6, Sphingosine 1-phosphate receptor 4 (Homo sapiens, UniProt O95977); test: Fluorescence dose response cell-based high throughput screening assay for antagonists of the Sphingosine 1-Phosphate Receptor 4 (S1P4). [Related pubchem assays: 1524 (Confirmation in triplicates.), 1510 (Primary screen.)]; format: functional
T6 sequence (O95977 whole entry): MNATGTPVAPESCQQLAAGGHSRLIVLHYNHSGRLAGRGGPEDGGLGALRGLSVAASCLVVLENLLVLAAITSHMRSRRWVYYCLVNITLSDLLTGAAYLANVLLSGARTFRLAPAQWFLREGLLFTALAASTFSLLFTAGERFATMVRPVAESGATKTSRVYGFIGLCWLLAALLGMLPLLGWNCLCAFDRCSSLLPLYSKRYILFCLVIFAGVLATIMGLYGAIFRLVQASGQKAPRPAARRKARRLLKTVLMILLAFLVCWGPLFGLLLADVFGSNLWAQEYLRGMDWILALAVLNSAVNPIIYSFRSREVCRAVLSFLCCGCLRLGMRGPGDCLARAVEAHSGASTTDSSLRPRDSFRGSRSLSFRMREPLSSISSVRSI

[10] = molecular target: DNA damage-inducible transcript 3 protein (Mus musculus, UniProt P35639); format: functional, Cricetulus griseus
[11] = molecular target: T7, Heat shock factor protein 1 (Mus musculus, UniProt P38532); test: decrease of HSF1-responsive luciferase luminescence – cell-based, NIH3T3, dose retest, confirmation (AID 2382); format: functional;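 note: NIH3T3 fibroblasts with HSF1-driven luciferase reporter stressed by proteasome inhibitor MG132; luminescence from HSF1-driven luciferase expression after 8 hours of MG132 stress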
T7 sequence (P38532 whole entry): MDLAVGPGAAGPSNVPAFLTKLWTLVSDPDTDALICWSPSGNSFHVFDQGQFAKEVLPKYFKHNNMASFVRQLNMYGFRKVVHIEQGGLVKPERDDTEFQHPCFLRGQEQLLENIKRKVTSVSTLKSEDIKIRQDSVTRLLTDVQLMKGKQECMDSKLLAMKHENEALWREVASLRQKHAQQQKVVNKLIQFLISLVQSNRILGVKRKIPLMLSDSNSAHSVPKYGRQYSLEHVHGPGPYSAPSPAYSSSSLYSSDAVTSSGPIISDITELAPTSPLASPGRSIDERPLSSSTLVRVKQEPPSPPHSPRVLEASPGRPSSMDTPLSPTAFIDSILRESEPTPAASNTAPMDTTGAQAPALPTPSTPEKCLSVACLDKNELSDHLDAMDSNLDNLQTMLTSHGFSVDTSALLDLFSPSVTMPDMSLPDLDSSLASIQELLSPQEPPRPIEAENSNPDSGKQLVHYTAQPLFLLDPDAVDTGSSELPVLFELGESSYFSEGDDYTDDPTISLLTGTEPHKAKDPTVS

[12] = viability of HCT116 lacking mutant beta-catenin – cell-based, human colon tumor, dose response (AID 1045); format: functional;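 note: HCT116 colon tumor cells with beta catenin knocked out; cells exposed to compound for 60 hours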
[13] = viability of PTEN-deleted HCT116 cells – cell-based, HCT116 PTEN knockout, dose response (AID 1047); format: functional;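 note: HCT116 colon tumor cells with PTEN knocked out; cells exposed to compound for 60 hours before readout; potency for loss of cell viability measured by luminescence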
[14] = molecular target: Sphingosine 1-phosphate receptor 1 (Homo sapiens, UniProt P21453); format: functional;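 note: Tango beta-arrestin reporter U2OS cells stimulated with S1P near its EC80; inhibitor potency meaning antagonism of receptor activation by the natural agonist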
Beta-galactosidase = Beta-galactosidase (Escherichia coli, UniProt Q8VNN2); test: detection-enzyme interference by beta-gal modulators – biochemical, E. coli enzyme, set 3, artefact control for CCR6 antagonist project, dose response (AID 504712); format: functional
cells = format: functional
[15] = THP-1 cell cytotoxicity, dose response, cytotoxicity control for non-replicating M. tuberculosis project (AID 489025); format: functional
[16] = molecular target: T6, Sphingosine 1-phosphate receptor 4; test: Late-stage fluorescence dose response cell-based assay to identify agonists of the Sphingosine 1-Phosphate Receptor 4 (S1P4): purchased compounds EC50. [Related pubchem assays (depositor defined):AID1509, AID1523, AID1563, AID1686, AID1701, AID1801]; format: functional

Beta-galactosidase, sequence (Q8VNN2 whole entry): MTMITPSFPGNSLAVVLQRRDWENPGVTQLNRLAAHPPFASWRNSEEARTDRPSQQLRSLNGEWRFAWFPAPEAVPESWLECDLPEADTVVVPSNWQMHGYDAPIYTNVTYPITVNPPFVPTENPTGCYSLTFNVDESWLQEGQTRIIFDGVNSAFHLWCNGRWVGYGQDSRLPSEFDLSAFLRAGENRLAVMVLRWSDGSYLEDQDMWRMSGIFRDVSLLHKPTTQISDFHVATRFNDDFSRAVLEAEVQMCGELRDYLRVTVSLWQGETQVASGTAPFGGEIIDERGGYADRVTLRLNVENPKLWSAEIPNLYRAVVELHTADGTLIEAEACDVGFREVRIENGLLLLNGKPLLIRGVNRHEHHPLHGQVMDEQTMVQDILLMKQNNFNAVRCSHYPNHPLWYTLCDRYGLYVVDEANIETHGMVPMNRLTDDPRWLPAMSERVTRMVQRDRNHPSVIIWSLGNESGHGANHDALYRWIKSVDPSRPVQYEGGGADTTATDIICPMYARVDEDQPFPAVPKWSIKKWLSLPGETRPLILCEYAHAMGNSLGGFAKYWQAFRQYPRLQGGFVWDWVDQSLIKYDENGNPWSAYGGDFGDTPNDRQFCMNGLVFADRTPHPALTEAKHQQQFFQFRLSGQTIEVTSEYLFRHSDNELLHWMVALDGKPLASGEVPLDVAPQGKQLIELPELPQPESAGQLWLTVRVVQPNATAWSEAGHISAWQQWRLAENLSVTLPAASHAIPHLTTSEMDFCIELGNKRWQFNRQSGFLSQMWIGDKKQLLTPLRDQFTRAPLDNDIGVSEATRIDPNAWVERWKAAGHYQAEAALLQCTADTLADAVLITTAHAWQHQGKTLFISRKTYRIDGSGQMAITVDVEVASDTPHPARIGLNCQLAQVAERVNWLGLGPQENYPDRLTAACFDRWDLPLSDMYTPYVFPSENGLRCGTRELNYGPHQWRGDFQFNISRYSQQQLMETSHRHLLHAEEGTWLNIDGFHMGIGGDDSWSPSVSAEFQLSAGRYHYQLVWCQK
Sphingosine 1-phosphate receptor 1, sequence (P21453 whole entry): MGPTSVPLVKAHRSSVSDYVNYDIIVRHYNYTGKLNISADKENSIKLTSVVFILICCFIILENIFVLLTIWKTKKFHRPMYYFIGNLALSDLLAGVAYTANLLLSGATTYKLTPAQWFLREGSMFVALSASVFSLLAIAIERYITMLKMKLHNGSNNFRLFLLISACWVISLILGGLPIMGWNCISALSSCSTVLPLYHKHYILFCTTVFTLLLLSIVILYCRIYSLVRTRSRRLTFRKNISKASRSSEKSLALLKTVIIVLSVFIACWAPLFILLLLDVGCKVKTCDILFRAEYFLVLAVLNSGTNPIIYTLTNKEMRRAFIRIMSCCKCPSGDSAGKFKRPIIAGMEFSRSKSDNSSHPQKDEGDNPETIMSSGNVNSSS
X-box-binding protein 1, sequence (P17861 whole entry): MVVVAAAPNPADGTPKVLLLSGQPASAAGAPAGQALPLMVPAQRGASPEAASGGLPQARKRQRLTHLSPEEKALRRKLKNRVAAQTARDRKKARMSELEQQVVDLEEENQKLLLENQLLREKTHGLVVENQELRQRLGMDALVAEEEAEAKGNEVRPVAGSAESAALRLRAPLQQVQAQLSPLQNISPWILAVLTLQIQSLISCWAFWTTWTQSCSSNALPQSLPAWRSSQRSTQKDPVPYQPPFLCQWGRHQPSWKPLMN
DNA damage-inducible transcript 3 protein, sequence (P35639 whole entry): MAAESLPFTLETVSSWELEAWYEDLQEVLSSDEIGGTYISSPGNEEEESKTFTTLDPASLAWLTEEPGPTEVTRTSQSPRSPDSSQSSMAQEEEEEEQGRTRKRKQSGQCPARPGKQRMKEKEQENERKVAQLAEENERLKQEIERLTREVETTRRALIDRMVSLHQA
Glyceraldehyde-3-phosphate dehydrogenase, sequence (P04406 whole entry): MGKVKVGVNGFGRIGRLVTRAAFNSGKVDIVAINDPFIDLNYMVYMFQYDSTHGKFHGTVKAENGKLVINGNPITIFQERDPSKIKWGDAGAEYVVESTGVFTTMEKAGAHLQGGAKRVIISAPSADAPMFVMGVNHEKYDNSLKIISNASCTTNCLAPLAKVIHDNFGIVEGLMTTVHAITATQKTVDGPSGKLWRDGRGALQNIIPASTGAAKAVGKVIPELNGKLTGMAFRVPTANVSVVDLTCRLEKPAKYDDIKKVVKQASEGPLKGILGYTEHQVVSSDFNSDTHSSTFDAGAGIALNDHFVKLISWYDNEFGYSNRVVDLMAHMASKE

Compound: COc1cccc(-c2nc3ccccc3c(=O)o2)c1
- IC50 (Coagulation factor XII): > 50 µM (inconclusive)
- IC50 (Prothrombin): 6.94 µM (active)

Compound: CC1(C)Cc2c(C#N)c(NC3CCCCC3)nc(-c3ccco3)c2CO1
- AC50 [1]: 5.72 µM (active)
- EC50 (T-cell): 6.98 µM (active)

Compound: O=C(O)c1ccc(-c2ccccc2)[nH]1
- IC50 [2]: > 100 µM (not active)
- IC50 [3]: > 100 µM (inactive)

Compound: CC(C)(C)c1csc(Sc2ccc([N+](=O)[O-])cn2)n1
- AC50 [4]: 2.54 µM (active)
- EC50 (Protein RecA): 1.75 µM (active)
- IC50 [5]: > 80 µM (inactive)
- CC50 [6]: > 40 µM (active)

Compound: CCOc1cc2[nH]c(=S)n(CC3CCCN3CC)c(=O)c2cc1OCC (centres undefined)
- EC50 [7]: > 100 µM (inactive)

Compound: O=C1c2cccc3c([N+](=O)[O-])ccc(c23)C(=O)N1c1ccccn1
- Absolute IC50 (XBP1) (X-box-binding protein 1): 10 µM
- AC50 (HEK293): 5.7 µM (active)
- CC50 [8]: 12.3 µM (active)
- IC50 [9]: 0.75 µM (active)
- Absolute IC50 (CHOP) [10]: 10 µM
- EC50 [11]: 12.8 µM (active)
- EC50 [12]: 2.38 µM (active)
- EC50 [13]: 4.17 µM (active)
- IC50 [14]: 2.29 µM (active)
- IC50 (Beta-galactosidase): > 66.6 µM (inactive)
- IC50 (cells): 20.3 µM (active)
- CC50 [15]: 6.16 µM (active)

Compound: Cc1ccc(OCC(=O)Nc2cc(Cl)cc(Cl)c2)c([N+](=O)[O-])n1
- EC50 [16]: 3.6 µM (active) and > 50 µM (inactive)
